How the values were obtained:
HEK293T cells = assay: Cytotoxicity on non-cancerous control cells; type: cell-based; details: Homo sapiens, HEK-293T, read-out: IC50 Hek293
Description: (§1) A stock solution of the compounds (20 mM in DMSO) was prepared and stored at −18 °C. Then, the compounds were diluted in the cell culture medium and tested starting with the 100 µM concentration as the upper limit. The application of equation (6) allowed to obtain the values of IC50. C1 − [50 − N1%/N2% − N1%] − (C1 − C2),(6) where C1 is the concentration of the compound which inhibits cell proliferation by more than 50%; C2 is the concentration of the compound which inhibits cell proliferation below 50%; N1% represents the number of cells (expressed as a percentage of control without compound) obtained in the presence of C1 and N2% represents the number of cells (as a percentage of control without compound) obtained in the presence of C2.
(§2) Finally, the compounds of this series of benzothiazole derivatives were tested to evaluate their antiproliferative activity in vitro against human T-cell leukemia cell line (CEM), human cervical carcinoma cells (HeLa), human pancreas cancer cells (Mia Paca-2) and human melanoma cells (SK-Mel 5). Non-cancerous HEK293T cells (Normal Kidney Epithelial Cells) were chosen as a control for cytotoxicity and/or selectivity. The results obtained have been summarized in Table 5 (data shown only for the active compounds) and are expressed as IC50 values in μM. The selectivity index (SI) was also reported, determined by comparing the values of IC50 (μM) obtained on healthy cells (HEK 293) with that obtained on tumor cells (CEM, HeLa, Mia-Paca-2 and SK- Mel 5) (Table 5).

[1] = Photostability of formulations after solar simulator irradiation; type: physicochemical; details: for photostability of the filter: formulation on PMMA plate, photostable if residual % >= 80
Description: The method adopted to determine the photostability has been previously reported. Each plate was prepared as mentioned above and subjected to a solar irradiation quantified as the minimum UVA dose equivalent to an effective erythema radiant exposure. Transmittance of the sunscreen layer was recorded in the range of 290–400 nm before and after exposure to sunlight.
Equations (3) and (4) made it possible to derive the residual percentage of SPF in vitro (% SPFeff.) and UVA-PF (% UVA-PFeff.), respectively, which, if greater than or equal to 80, can categorize a filter as photostable. %SPFeff. = in vitro SPFafter/in vitro SPFbefore × 100(3) %UVA − PFeff. = UVA − PFafter/UVA − PFbefore × 100.(4)
Photostability is a crucial feature to delineate the efficacy and safety profile of a solar formulation. According to the criteria developed by Garoli et al., photodegradation was measured by recording the pre- and post-irradiation transmittance of PMMA plates with finger-coated formulations, applying the dose of UVA necessary to cause erythema.
The residual efficacy after exposure (%) indicates the loss of sun protection after sun exposure. Equations (3) and (4) made it possible to derive the residual percentage of SPF in vitro (% SPFeff.) and UVA-PF (% UVA-PFeff.), respectively, which, if greater than or equal to 80, make a filter to be categorized as photostable, according to regulation. It can be deduced from the data obtained that compounds 8a and 10a were photostable (Figure 2). […] Compound 9a containing furan in position 2 was photo-unstable with SPF and PF-UVA below 80%, and this could be attributable to photo-instability of its conjugated species. The order of photostability that emerged for the benzothiazole derivatives is: thiophene derivatives> pyrrole derivatives> furan derivatives.

[2] = Ferric Reducing Antioxidant Power assay (FRAP); details: 593 nm
Description: The FRAP assay is a widely used method based on a colorimetric reaction linked to a redox and on the use of antioxidants as reducing agents.
The test evaluates the capacity of a sample to reduce ferric to ferrous ions in the presence of TPTZ (2,4,6-tripyridyl-s-triazine). The reaction mixture consists of 0.1 M acetate buffer pH 3.6, 10 mmol/L TPTZ in 40 mmol/HCl, and 20 mmol/L ferric chloride in the ratio 10/1/1 (v:v:v) as described by Benzie et al.. A total of 1.9 mL of reagent was added to 0.1 mL of suitably diluted sample or solvent. The absorbance values were measured using the UV-VIS spectrophotometer at 593 nm and expressed as µmol TE/g compound.

SK-Mel 5 cells = assay: Antiproliferative activity; type: cell-based; details: Homo sapiens, read-out: IC50 SK-Mel5
Description: as §1, §2

In vitro DPPH test = details: for DPPH (% Inhibition): compounds at 1 mg/mL, 30 min, 517 nm
Description: The assay performed is adapted from Wang et al.. Briefly, 0.750 mL of 1 mg/mL solutions of the tested compounds was treated with 1.5 mL of DPPH solution in MeOH. The absorbance of samples, stored for 30 min at room temperature in the dark, was read on the spectrophotometer at 517 nm. The values obtained were converted into a radical inhibition percentage (%) by Equation (1). DPPH radical scavenging capacity (%) = [1 − A1/A0] × 100%(1) where A0 and A1 were, respectively, the absorbance without and with the sample. Subsequently, the compound with the best profile was tested in order to determine the IC50 (µg/mL). A linear regression plot is performed to calculate the actual sample concentration required to eliminate 50% of the DPPH free radicals.
The antioxidant activity of a molecule is very important and, if present, it can be synergistic with the SPF described above in reducing the damage that is ROS-induced by UV rays. For this reason, the synthesized compounds were assayed in vitro to assess their antioxidant profiles by means of the DPPH and FRAP assays (Table 2). Regarding the ability to scavenge the stable radical 2,2-diphenyl-1-picrylhydrazyl (DPPH), it was decided to investigate first the compounds synthesized at the same concentration (1 mg/mL) and evaluate the percentage of inhibition of the radical DPPH.

## c1coc(-c2nc3ccccc3s2)c1 [Compound 9a, 2-(Furan-2-Yl)benzothiazole]
HEK293T cells
  IC50: > 100 µM
[1]; after irradiation
  residual percentage of SPF in vitro (% SPFeff.): below 80%
  residual percentage of UVA-PF (% UVA-PFeff.): below 80%
[1]
  photostability of the filter: photo-unstable
other
  melting point: 103 °C
[2]
  FRAP: 72.34 ± 3.42 μmolTE/g
SK-Mel 5 cells
  IC50: 98 ± 2 µM
In vitro DPPH test
  DPPH (% Inhibition): 24.69 ± 0.14%

## c1c[nH]c(-c2nc3ccccc3[nH]2)c1 [Lead 10, reference compound]
HEK293T cells
  IC50: 31 ± 3 µM
[2]
  FRAP: 1085.57 ± 0.88 μmolTE/g
SK-Mel 5 cells
  IC50: 9.7 ± 1.7 µM
In vitro DPPH test
  DPPH IC50: 64 ± 3 µg/mL
  DPPH (% Inhibition): 70.00 ± 3.25%

## c1c[nH]c(-c2nc3ccccc3s2)c1 [Compound 8a, 2-(1H-Pyrrol-2-Yl)benzothiazole]
HEK293T cells
  IC50: 68 ± 14 µM
[1]
  photostability of the filter: photostable
other
  melting point: 132 °C
[2]
  FRAP: 329.85 ± 0.94 μmolTE/g
SK-Mel 5 cells
  IC50: 41 ± 4 µM
In vitro DPPH test
  DPPH (% Inhibition): 29.17 ± 1.05%

## NS(=O)(=O)c1ccc2nc(-c3cccs3)sc2c1 [Compound 10c, 2-(Thiophen-2-Yl)benzothiazole-6-Sulfonamide]
HEK293T cells
  IC50: > 100 µM
other
  melting point: > 250 °C
[2]
  FRAP: 60.90 ± 1.87 μmolTE/g
SK-Mel 5 cells
  IC50: > 100 µM
In vitro DPPH test
  DPPH (% Inhibition): 21.82 ± 0.06%

## c1csc(-c2nc3ccccc3s2)c1 [Compound 10a, 2-(Thiophen-2-Yl)benzothiazole]
HEK293T cells
  IC50: > 100 µM
[1]
  photostability of the filter: photostable
other
  melting point: 99 °C
[2]
  FRAP: 143.13 ± 3.84 μmolTE/g
SK-Mel 5 cells
  IC50: 50 ± 5 µM
In vitro DPPH test
  DPPH (% Inhibition): 85.00 ± 0.88%
